Experimental data as given in PubChem BioAssay (NCI).
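Following 48 hours of exposure in 96-well plates, responses at five concentrations were used to interpolate endpoints linearly. GI50 = concentration required for 50% inhibition of growth. TGI is the concentration that stops growth completely.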

Tests used:
Assay in all cases: DTP human tumour cell line panel, 48 h
[1] = system: HS 578T breast
[2] = system: SNB-19 CNS
[3] = system: ACHN renal
[4] = system: EKVX NSCLC
[5] = system: COLO 205 colon
[6] = system: SNB-75 CNS
[7] = system: MDA-MB-435
[8] = system: NCI-H460 lung
[9] = system: SF-539 CNS
[10] = system: SR leukemia

SMILES | GI50 [1] [µM] | TGI [1] [µM] | GI50 [2] [µM] | TGI [2] [µM] | GI50 [3] [µM] | TGI [3] [µM] | GI50 [4] [µM] | TGI [4] [µM] | GI50 [5] [µM] | TGI [5] [µM] | GI50 [6] [µM] | TGI [6] [µM] | GI50 [7] [µM] | TGI [7] [µM] | GI50 [8] [µM] | TGI [8] [µM] | GI50 [9] [µM] | TGI [9] [µM] | TGI [10] [µM] | GI50 [10] [µM]
O=[N+]([O-])c1ccc(N2CCOCC2)c2c1no[n+]2[O-] | 1.15 | 4.17 | 3.74 | 16.4 | 0.528 | 3.15 | 1.93 | 6.72 | 0.906 | 2.24 | 0.822 | 5.56 | 2.15 | 7.35 | 0.601 | 2.07 | 1.07 | 2.27 | – | –
CC12CCC(=O)N1c1ccc([N+](=O)[O-])cc1N2 (stereo not drawn) | – | – | – | > 100 | – | > 100 | – | > 100 | – | > 100 | – | > 100 | – | – | – | – | – | > 100 | > 100 | –
N#CCCN1C/C(=C/c2ccc(Cl)cc2)C(=O)/C(=C/c2ccc(Cl)cc2)C1 | 2.9 | 12.8 | 1.31 | 2.72 | 1.63 | 3.28 | – | – | 1.25 | 2.64 | 2.19 | 6.8 | 1.37 | 2.99 | 0.707 | 2.52 | 1.32 | 2.74 | – | –
C(=N/N(Cc1ccccc1)Cc1ccccc1)/c1ccccc1 | 51.1 | > 100 | > 100 | > 100 | > 100 | > 100 | 59.3 | > 100 | > 100 | > 100 | > 100 | > 100 | 77.3 | > 100 | > 100 | > 100 | > 100 | > 100 | – | –
Cc1ccccc1NC(=O)C(=O)C(C#N)c1ccccc1C (stereo not drawn) | – | – | – | > 100 | – | > 100 | – | > 100 | – | > 100 | – | > 100 | – | – | – | > 100 | – | > 100 | > 100 | –
O=S(=O)(c1cccc(N=C=S)c1)c1cccc(N=C=S)c1 | – | – | – | > 100 | – | 34.5 | – | > 100 | – | 38.1 | – | – | – | – | – | – | – | – | – | –
Cc1ccc(S(=O)(=O)N/N=C(/CC(=O)c2c(C)n([O-])c3ccccc3[n+]2=O)C(=O)Nc2ccccc2C)cc1 | – | – | – | > 100 | – | > 100 | – | > 100 | – | > 100 | – | > 100 | – | – | – | > 100 | – | > 100 | > 100 | –
COc1ccc(-c2nc(/C=C3\SC(=NCc4ccccc4)NC3=O)c3ccccn23)cc1 | 1.37 | 4.32 | 2.71 | 9.68 | 1.34 | 1.94 | 2.41 | > 25.5 | 2.75 | 7.66 | 1.51 | 3.2 | – | – | 0.666 | 2.24 | 1.41 | 1.99 | > 100 | 2.5
N#CC(C#N)c1ccc(C(=O)N2CCC[C@H]2CO)cc1 | – | – | – | > 100 | – | > 100 | – | > 100 | – | > 100 | – | > 100 | – | – | – | > 100 | – | > 100 | – | –
CC(=O)OCCOCNC(=S)N/N=C/c1cc(Br)cs1 | – | – | – | > 100 | – | > 100 | – | > 100 | – | > 100 | – | > 100 | – | – | – | > 100 | – | > 100 | > 100 | –
COCOCC/C=C/C=O | – | – | – | > 100 | – | > 100 | – | > 100 | – | > 100 | – | > 100 | – | – | – | > 100 | – | > 100 | > 100 | –
N#CC(c1ccccn1)c1nc2ccccc2[nH]1 (stereo not drawn) | – | – | – | > 100 | – | > 100 | – | > 100 | – | > 100 | – | > 100 | – | – | – | > 100 | – | – | > 100 | –
CCc1cccc(C)c1NC(=O)c1sc2nc3c(cc2c1N)C(=O)CCC3 | 2.57 | > 100 | 0.918 | > 100 | 0.872 | > 100 | – | – | 0.35 | 1.51 | 0.527 | > 100 | 0.159 | – | 0.371 | 14 | – | – | > 41.1 | 0.501
CN(CCNCc1ccccn1)CCNCc1ccccn1 | – | – | 5.29 | 18.5 | 2.2 | 5.82 | 3.01 | 12.3 | 2.53 | 6.02 | 3.04 | 16 | 2.21 | 4.93 | 3.16 | 9.54 | 2.06 | 5.33 | 43 | 3.71
O=C(c1nc2ccccc2[nH]c1=O)C(O)c1ccccc1 (stereo not drawn) | – | – | – | > 100 | – | > 100 | – | > 100 | – | > 100 | – | – | – | – | – | > 100 | – | > 100 | > 100 | –
NC(=O)C(=O)C1CCC2=C(Sc3ccccc3N2)C1=O (stereo not drawn) | – | – | – | > 100 | – | > 100 | – | > 100 | – | > 100 | – | > 100 | – | – | – | > 100 | – | > 100 | – | –
Cc1ccc(-c2nc([P+](c3ccccc3)(c3ccccc3)c3ccccc3)c(S(=O)(=O)c3ccc(C)cc3)o2)cc1 | 1.7 | 5.31 | 1.64 | 3.3 | 1.46 | 2.78 | 1.21 | 2.98 | 1.71 | 4.28 | 1.21 | 4.41 | 1.56 | 3.04 | 1.64 | 3.43 | 1.58 | 2.92 | – | –
C[N+](C)(C)CC1CCCC1=O (stereo not drawn) | – | 16.6 | – | 50.8 | – | 9.94 | – | 4.62 | – | 2.99 | – | 7.98 | – | 3.22 | – | 38.9 | – | 6.05 | – | –
CCOC(=O)/C(C#N)=C(O)/C(=C\c1ccc(Br)cc1)NC(=O)c1ccccc1 | – | – | – | > 100 | – | > 100 | – | > 100 | – | > 100 | – | > 100 | – | – | – | > 100 | – | > 100 | – | –
